Paper PMC9370761, “Anti-Inflammatory Effects of Auranamide and Patriscabratine—Mechanisms and In Silico Studies” (Molecules, 2022)

How the values were obtained:
[1] = Metabolic stability in rat liver microsomes; assay type: in vitro ADME; settings: 37 °C; for Clint: 0.5 µM; for half-life at 0.5 µM: read-out: Half-life (T1/2)
Description: (§1) Metabolic stability is an important parameter in the drug discovery pipeline. The metabolic stability of test compounds was evaluated in vitro using human, rat and mouse liver microsomes. The metabolic equation below determines the test compounds’ half-life (T1/2) and intrinsic clearance (Clint). Compound+ NADPH + H^++ O2 → oxidized analyte + NADP^++ H2O
(§2) The metabolic stability of the test compounds in human, rat, and mouse liver microsomes was determined using the method described in our previous work. Five microlitres of auranamide or patriscabratine (0.5 µM) were incubated in a reaction mixture at 37 °C for 0, 3, 6, 15, 30, 45 and 60 min. The concentration of test compounds in the reaction mixture was quantified using Agilent 1290 coupled with Q-TOF. The experiment was carried out in triplicate. The concentration versus time plot calculated the elimination rate constant (Kel). The below formulae were used to calculate the intrinsic clearance (Clint) and half-life (T1/2). The results are expressed as mean ± standard deviation from three experiments. Clint= Kel/0.5 ×52.5 T1/2= 0.693/Kel

NF-κB p65 = NF-κB p65 ELISA, nuclear extract of LPSEc-stimulated RAW 264.7 cells; assay type: cell-based, murine; settings: 10 μM; LPSEc control 8.40 ± 0.09
Description: (§3) The anti-inflammatory activity of the test compounds was assessed in E. coli lipopolysaccharide (LPSEc)-induced inflammation in RAW 264.7 cells. Cells (5 × 10^5 cells/well) were incubated for 24 h in a 24-well plate. Then, the cells were challenged with LPSEc (100 ng/mL) for 4 h. The test compounds (10, 1, 0.1, 0.01 and 0.001 µM) or positive control (dimethyl fumarate, 10 μM) were then added and incubated for 24 h. The levels of NO production and pro-inflammatory cytokines (IL-1β, IL-6, IFN-γ and TNF-α) were determined using the supernatant solution. The cell pellet was used to measure the levels of COX-2, NF-κB p65, NRF2, and HO-1.
(§4) The COX-2 level was estimated in the cytoplasmic extract, whereas NF-κB p65, NRF-2 and HO-1 levels were estimated in nuclear extract. The nuclear extraction kit was used to separate the cytoplasm from the nucleus following the manufacturer’s instructions. The cell pellet was incubated in 100 µL of pre-extraction buffer on ice for 10 min, vortexed, and centrifuged. The supernatant cytoplasmic extract was collected. […] The protein concentration in the extracts was determined using Bradford’s reagent. […] The levels were measured in triplicate. The absorbance was measured using a Spectramax M3 microplate reader (Molecular Devices, LLC., San Jose, CA 95134, USA). […]

NQO1 = NQO1 activity, Prochaska microtiter plate bioassay in Hepa-1c1c7 cells; assay type: cell-based, murine; settings: 48 h
Description: The NRF2 activation is associated with increased NQO1 activity and an increased concentration of NRF2 and HO-1 in the nucleus. The protective role of NRF2/HO-1 in inflammatory diseases is well documented. Therefore, the NRF2 and HO-1 levels in nuclear extracts of the RAW 264.7 cells were determined using ELISA kits and expressed as fold changes with reference to the negative control. The effect of test compounds on NQO1 activity was determined using the reported method in murine hepatoma cells (Hepa-1c1c7). Dimethyl fumarate was used as a positive control, and 0.1% DMSO was used as a negative control. […] The CD value (concentration of test compound to double the NQO1 activity) of auranamide was 6.81 ± 0.18 μM, while for patriscabratine it was 4.28 ± 0.17 μM.
The “Prochaska” Microtiter Plate Bioassay was used to measure the NQO1 activity in hepatoma cells (Hepa-1c1c7). The cells (5 × 10^5 per well) were seeded and incubated with either auranamide or patriscabratine (10, 1, 0.1, 0.01, and 0.001 µM) or a reference drug (dimethyl fumarate, 10 μM) for 48 h. […] The protein concentration was determined using Bradford’s reagent. […] The optical density of the solution was determined at 610 nm using a Spectramax M3 microplate reader (Molecular Devices, LLC., San Jose, CA 95134, USA), and the values were normalized to the total protein content.

COX-2 = COX-2 ELISA, cytoplasmic extract of LPSEc-stimulated RAW 264.7 cells; assay type: cell-based, murine; settings: 10 μM; LPSEc control 8.09 ± 0.08
Description: as §3, §4

NRF2 = NRF2 ELISA, nuclear extract of RAW 264.7 cells; assay type: cell-based, murine; settings: 10 μM, vs negative control
Description: (§5) The NRF2 activation is associated with increased NQO1 activity and an increased concentration of NRF2 and HO-1 in the nucleus. The protective role of NRF2/HO-1 in inflammatory diseases is well documented. Therefore, the NRF2 and HO-1 levels in nuclear extracts of the RAW 264.7 cells were determined using ELISA kits and expressed as fold changes with reference to the negative control. The effect of test compounds on NQO1 activity was determined using the reported method in murine hepatoma cells (Hepa-1c1c7). Dimethyl fumarate was used as a positive control, and 0.1% DMSO was used as a negative control. […]
(§6) The anti-inflammatory activity of the test compounds was assessed in E. coli lipopolysaccharide (LPSEc)-induced inflammation in RAW 264.7 cells. […] The levels of NO production and pro-inflammatory cytokines (IL-1β, IL-6, IFN-γ and TNF-α) were determined using the supernatant solution. […]
(§7) The COX-2 level was estimated in the cytoplasmic extract, whereas NF-κB p65, NRF-2 and HO-1 levels were estimated in nuclear extract. […] The protein concentration in the extracts was determined using Bradford’s reagent. […] The levels were measured in triplicate. The absorbance was measured using a Spectramax M3 microplate reader (Molecular Devices, LLC., San Jose, CA 95134, USA). […]

[2] = Metabolic stability in mouse liver microsomes; assay type: in vitro ADME; settings: 37 °C; for Clint: 0.5 µM; for half-life at 0.5 µM: read-out: Half-life (T1/2)
Description: as §1, §2

RAW264.7 cells = assay: MTT cytotoxicity on RAW264.7 cells; assay type: cell-based, murine; settings: MTT assay, 24 h, RAW 264.7 cells
Description: (§8) The cytotoxicity of the test compounds on RAW 264.7 and Hepa-1c1c7 cells was assessed using Vybrant® MTT Cell Proliferation Assay Kit following the manufacturer’s protocol. The cells were seeded at 5 × 10^5 cells/well and incubated for 24 h. Then, various concentrations (100 to 0.01 μM) of the test compounds were added and incubated for a further 24 h. The cell supernatant solution was replaced with the MTT assay solution and incubated for 4 h. The formazan crystals were dissolved in DMSO, and the optical density (OD) of the solution was measured at 570 nm (reference wavelength 630 nm) using Spectramax M3 microplate reader (Molecular Devices, LLC., San Jose, CA 95134, USA). The cell viability was calculated using the following formula, and the results are presented as mean ± SD. Percent cell viability %=ODtreated cells−ODblank/ODuntreated cells− ODblank×100%

Hepa-1c1c7 cells = assay: MTT cytotoxicity on Hepa-1c1c7 cells; assay type: cell-based, murine; settings: MTT assay, 24 h
Description: as §8

IL-1β = IL-1β ELISA in LPSEc challenged RAW 264.7 cells; assay type: cell-based, murine; settings: 10 μM; vs untreated cells; LPSEc alone 4.56 ± 0.13
Description: as §3
(§9) Single-Analyte ELISArray kits were used to quantify the pro-inflammatory cytokines (IL-1β, IL-6, IFN-γ and TNF-α) in the cell supernatant following the manufacturer’s instructions. The standard protein (50 μL) or test sample solutions (50 μL) were added to a well (in duplicate) and incubated for 2 h at room temperature. The contents in the well were washed with wash buffer, and then 100 µL of biotinylated detection antibody solution was added and incubated for 1 h at room temperature. […] The optical density was measured at 450/570 nm using a Spectramax microplate reader M3 (Molecular Devices, LLC., San Jose, CA 95134, USA). The levels of pro-inflammatory cytokines (in pg/mL) in test samples were calculated using the standard curve. […]

[3] = tested on: nitric oxide (NO) production; assay: NO production (Griess assay) in LPSEc-stimulated RAW264.7 cells; assay type: cell-based, murine; settings: for reduced the NO production by: 10 μM, LPSEc-stimulated NO = 100%; for IC50: Mus musculus, 100 ng/mL LPSEc, RAW264.7, 24 h, read-out: IC50 (concentration required to reduce the NO production by 50%)
Description: The anti-inflammatory activity of the compounds was tested using Escherichia coli lipopolysaccharide (LPSEc) stimulated RAW264.7 cells. Nitric oxide (NO) is a classical marker used to measure inflammation. The Griess assay was used to determine NO production. The cells were stimulated with 100 ng/mL LPSEc and the NO produced was considered to be at 100%. The anti-inflammatory effect of the compounds was assessed by adding the compounds (10, 1, 0.1, 0.01, and 0.001 µM) to the LPSEc stimulated cells. The efficacy of the compounds was assessed by calculating their ability to reduce the LPSEc stimulated NO production. Dimethyl fumarate was used as a positive control, and 0.1% DMSO was used as a negative control. […] The anti-inflammatory effect was not observed at concentrations of less than 0.1 μM.
as §3
LPSEc activates inducible nitric oxide synthase (iNOS) in RAW 264.7 cells and produces nitric oxide (NO), an important mediator of inflammation. The NO content in the supernatant solution was measured using the Griess assay following the manufacturer’s instructions. The optical density (OD) was measured at 540 nm using a Spectramax M3 microplate reader (Molecular Devices, LLC., San Jose, CA 95134, USA). The formula provided below was used to calculate the percentage of NO production. Percent NO production=ODtreated cells− ODblank/ODuntreated cells− ODblank×100%
The activity of the test compounds was tested in triplicate on each plate. The results are presented as mean ± SD. Treatment was performed with either LPSEc alone or LPSEc and test compounds were designated as treated cells. RAW264.7 cells treated with vehicle (0.1% DMSO) were designated as untreated cells.

HO-1 = HO-1 ELISA, nuclear extract of RAW 264.7 cells; assay type: cell-based, murine; settings: 10 μM, vs negative control
Description: as §5, §6, §7

IL-6 = IL-6 ELISA in LPSEc challenged RAW 264.7 cells; assay type: cell-based, murine; settings: 10 μM; vs untreated cells; LPSEc alone 6.91 ± 0.05
Description: as §3, §9

IFN-γ = IFN-γ ELISA in LPSEc challenged RAW 264.7 cells; assay type: cell-based, murine; settings: 10 μM; vs untreated cells; LPSEc alone 8.62 ± 0.26
Description: as §3, §9

TNF-α = TNF-α ELISA in LPSEc challenged RAW 264.7 cells; assay type: cell-based, murine; settings: 10 μM; vs untreated cells; LPSEc alone 4.33 ± 0.17
Description: as §3, §9

[4] = Metabolic stability in human liver microsomes; assay type: in vitro ADME; settings: 37 °C; for Clint: 0.5 µM; for half-life at 0.5 µM: read-out: Half-life (T1/2)
Description: as §1, §2

Row | Clint [1] [mL/min/g liver] | half-life at 0.5 µM [1] [min] | Clint [2] [mL/min/g liver] | half-life at 0.5 µM [2] [min] | IC50 [3] [µM] | Clint [4] [mL/min/g liver] | half-life at 0.5 µM [4] [min] | SMILES | NF-κB p65 fold change (NF-κB p65) [fold changes] | CD value (concentration of test compound to double the NQO1 activity) (NQO1) [µM] | COX-2 fold change (COX-2) [fold changes] | NRF2 upregulation (NRF2) [fold] | concentrations found to be cytotoxic (RAW264.7 cells) | concentrations found to be cytotoxic (Hepa-1c1c7 cells) | IL-1β fold change (IL-1β) [fold change] | reduced the NO production by [3] [%] | HO-1 upregulation (HO-1) [fold] | IL-6 fold change (IL-6) [fold change] | IFN-γ fold change (IFN-γ) [fold change] | TNF-α fold change (TNF-α) [fold change]
1 | 17.22 ± 0.46 | 4.23 | 16.18 ± 0.43 | 4.5 | 1.22 ± 0.95 | 10.18 ± 0.35 | 7.14 | O=C(N[C@@H](COC(=O)[C@H](Cc1ccccc1)NC(=O)c1ccccc1)Cc1ccccc1)c1ccccc1 [Auranamide] | 2.13 ± 0.20 | 6.81 ± 0.18 | 2.53 ± 0.25 | 2.66 ± 0.16 | higher than 10 µM | higher than 10 µM | 2.05 ± 0.16 | 33.22 | 1.74 ± 0.09 | 2.85 ± 0.31 | 4.06 ± 0.19 | 2.42 ± 0.24
2 | 18.53 ± 0.56 | 3.93 | 18.64 ± 0.51 | 3.9 | 1.85 ± 0.93 | 13.27 ± 0.42 | 5.48 | CC(=O)NC(COC(=O)C(Cc1ccccc1)NC(=O)c1ccccc1)Cc1ccccc1 (centres unmarked) [Patriscabratine] | 2.25 ± 0.27 | 4.28 ± 0.17 | 2.17 ± 0.31 | 2.37 ± 0.06 | higher than 10 µM | higher than 10 µM | 1.96 ± 0.12 | 30.84 | 1.83 ± 0.07 | 2.51 ± 0.38 | 4.15 ± 0.21 | 2.53 ± 0.18
